Assay results reported in ChEMBL document CHEMBL1158969, “Studies on the synthesis of sesquiterpene lactones, 12. Synthesis of (+)-colartin, (+)-arbusculin A, and their C-4 epimers and their biological activities” (1991).
Calls of active or inactive are those of the source.

What was measured:
Type in all cases: functional, organism-based
Brassica juncea [1] = assay: Growth regulatory activity on Brassica juncea root assessed as inhibition of germination and seedling growth at 500 ppm after 10 days
Cucumis sativus [2] = assay: Growth regulatory activity on Cucumis sativus stem assessed as inhibition of germination and seedling growth at 250 ppm after 10 days
Echinochloa frumentacea [3] = assay: Growth regulatory activity on Echinochloa frumentacea stem assessed as inhibition of germination and seedling growth at 500 ppm after 10 days
Cucumis sativus [4] = assay: Growth regulatory activity on Cucumis sativus stem assessed as inhibition of germination and seedling growth at 500 ppm after 10 days
Cucumis sativus [5] = assay: Growth regulatory activity on Cucumis sativus root assessed as complete inhibition of germination and seedling growth at 1000 ppm after 10 days
Echinochloa frumentacea [6] = assay: Growth regulatory activity on Echinochloa frumentacea root assessed as complete inhibition of germination and seedling growth at 1000 ppm after 10 days
Cucumis sativus [7] = assay: Growth regulatory activity on Cucumis sativus root assessed as complete inhibition of germination and seedling growth at 500 ppm after 10 days
Cucumis sativus [8] = assay: Growth regulatory activity on Cucumis sativus root assessed as inhibition of germination and seedling growth at 250 ppm after 10 days
Echinochloa frumentacea [9] = assay: Growth regulatory activity on Echinochloa frumentacea stem assessed as complete inhibition of germination and seedling growth at 1000 ppm after 10 days
Brassica juncea [10] = assay: Growth regulatory activity on Brassica juncea stem assessed as complete inhibition of germination and seedling growth at 1000 ppm after 10 days
Cucumis sativus [11] = assay: Growth regulatory activity on Cucumis sativus stem assessed as inhibition of germination and seedling growth at 1000 ppm after 10 days
Echinochloa frumentacea [12] = assay: Growth regulatory activity on Echinochloa frumentacea root assessed as inhibition of germination and seedling growth at 500 ppm after 10 days
Brassica juncea [13] = assay: Growth regulatory activity on Brassica juncea root assessed as inhibition of germination and seedling growth at 1000 ppm after 10 days
Cucumis sativus [14] = assay: Growth regulatory activity on Cucumis sativus root assessed as inhibition of germination and seedling growth at 500 ppm after 10 days
Echinochloa frumentacea [15] = assay: Growth regulatory activity on Echinochloa frumentacea stem assessed as inhibition of germination and seedling growth at 1000 ppm after 10 days
Echinochloa frumentacea [16] = assay: Growth regulatory activity on Echinochloa frumentacea root assessed as inhibition of germination and seedling growth at 1000 ppm after 10 days
Cucumis sativus [17] = assay: Growth regulatory activity on Cucumis sativus stem assessed as complete inhibition of germination and seedling growth at 1000 ppm after 10 days
Cucumis sativus [18] = assay: Growth regulatory activity on Cucumis sativus root assessed as inhibition of germination and seedling growth at 1000 ppm after 10 days
Brassica juncea [19] = assay: Growth regulatory activity on Brassica juncea stem assessed as inhibition of germination and seedling growth at 250 ppm after 10 days
Brassica juncea [20] = assay: Growth regulatory activity on Brassica juncea root assessed as inhibition of germination and seedling growth at 250 ppm after 10 days
Cucumis sativus [21] = assay: Growth regulatory activity on Cucumis sativus stem assessed as inhibition of germination and seedling growth at 100 ppm after 10 days
Cucumis sativus [22] = assay: Growth regulatory activity on Cucumis sativus root assessed as inhibition of germination and seedling growth at 100 ppm after 10 days
Brassica juncea [23] = assay: Growth regulatory activity on Brassica juncea root assessed as complete inhibition of germination and seedling growth at 1000 ppm after 10 days
Brassica juncea [24] = assay: Growth regulatory activity on Brassica juncea stem assessed as complete inhibition of germination and seedling growth at 500 ppm after 10 days
Brassica juncea [25] = assay: Growth regulatory activity on Brassica juncea root assessed as complete inhibition of germination and seedling growth at 500 ppm after 10 days
Cucumis sativus [26] = assay: Growth regulatory activity on Cucumis sativus stem assessed as complete inhibition of germination and seedling growth at 500 ppm after 10 days
Brassica juncea [27] = assay: Growth regulatory activity on Brassica juncea stem assessed as inhibition of germination and seedling growth at 1000 ppm after 10 days

Measured: growth inhibition (GI)

C[C@@H]1C(=O)O[C@H]2[C@H]1CC[C@@]1(C)CCC[C@@](C)(O)[C@H]21
active: Brassica juncea [1] | Cucumis sativus [2] | Echinochloa frumentacea [3] | Cucumis sativus [4] | Cucumis sativus [5] | Echinochloa frumentacea [6] | Cucumis sativus [7] | Cucumis sativus [8] | Echinochloa frumentacea [9] | Brassica juncea [10] | Cucumis sativus [11] | Echinochloa frumentacea [12]

C[C@@H]1C(=O)O[C@H]2[C@H]1CC[C@@]1(C)CC[C@@H](O)[C@@](C)(O)[C@H]21
active: Brassica juncea [13] | Cucumis sativus [14] | Echinochloa frumentacea [15] | Echinochloa frumentacea [3] | Echinochloa frumentacea [16] | Cucumis sativus [17] | Cucumis sativus [4] | Cucumis sativus [5]

CC1=CCC[C@]2(C)CC[C@@H]3[C@H](OC(=O)[C@H]3C)[C@@H]12
active: Cucumis sativus [18] | Cucumis sativus [14]

C=C1C(=O)O[C@@H]2[C@@H]3[C@](C)(CCC[C@@]3(C)O)CC[C@@H]12
not listed: Brassica juncea [1] | Cucumis sativus [2] | Cucumis sativus [4] | Brassica juncea [13] | Cucumis sativus [14] | Echinochloa frumentacea [15] | Echinochloa frumentacea [16] | Cucumis sativus [17] | Cucumis sativus [18] | Brassica juncea [27]
active: all other assays above

C[C@@H]1C(=O)O[C@H]2[C@H]1CC[C@@]1(C)CC=C[C@@](C)(O)[C@H]21
active: Brassica juncea [27] | Brassica juncea [1] | Cucumis sativus [2] | Echinochloa frumentacea [15] | Cucumis sativus [17] | Cucumis sativus [5] | Echinochloa frumentacea [6] | Brassica juncea [23] | Cucumis sativus [7] | Cucumis sativus [8] | Echinochloa frumentacea [12]
